US4999374A, “Veterinary treatment” (priority 1987, dated 1991)

Experiments:
T. hyodysenteriae (P18a) [1] = assay: Efficacy of M139603 in preventing swine dysentery in pigs, experimental infection (Example 5, Table 5); format: in vivo; conditions: 25 ppm feed
Procedure: The efficacy of M139603 was tested at 25 ppm feed.
(§1) In this studY two groups (Gp.1 and Gp.2) of pigs, six per group, were experimentally infected with a pathogenic strain of T. hyodysenteriae (P18a, IRAD(Institute for Animal Health), Compton, Berks, U.K.) by oro-gastric inoculation of 50 ml of a culture suspension (1×10^7cfu/ml) of the organism into each animal. From post-infection day (PID) to PID 35 the animals in Gp. 1 were offered ad lib a feed comprising "Kwikwean" meal (Rank, Hovis, McDougall Research Ltd; containing no antibiotics) incorporated with M139603 at 25 ppm. Gp.2 remained on unmedicated feed throughout the trial. Drug efficacy was measured primarily on the basis of the number of diarrhoea or dysentery days in relation to pig-days within a group and on the average daily weight gain per pig, in each group over the period of the trial. The daily gain was calculated by dividing group gain at end of trial (PID 35) by the total number of pig-days from PID 1 to PID 35. […] In the experiment the pigs were exposed to high infective doses of the organism a day before the introduction of the drug. Under normal circumstances preventive dose-regimes are applied on animals at risk and not on those already infected.

T. hyodysenteriae [2] = assay: Comparative efficacy of M139603 and salinomycin in experimentally infected mice (Example 3, Table 3); format: in vivo, mice (strain MF-1); conditions: 30 ppm feed
Excerpt: (§2) The infection leads to varying degrees of caecitis, the lesions of which are apparent in animals killed on or about the sixth day post-infection. Caecal specimens examined by bacteriological culture techniques applicable for enumeration of organisms reveal the presence of high populations of T.hyodysenteriae. This disease-model was used in experiments to compare the efficacy of M139603 with that of salinomycin, lasalocid and monensin in suppressing the infection.
(§3) In this study, the efficacy of M139603 was tested at 25 ppm feed and that of monensin (Eli Lilly) at 50 or 100 ppm. Groups of infected mice, five per group, were offered the drugs in the feed on five continuous days before killing. Caecal materials were subjected to bacteriological examination to enumerate the populations of viable treponemes per gram of material. […] The group mean in respect of the unmedicated groups was 7.9 cfu/g.
In this study, the efficacy of M139603 was tested at 30 ppm and that of salinomycin at 30, 40 or 60 ppm feed. The mouse-groups and test-procedureswere simi-ar to those applied under Example 2 above.

T. hyodysenteriae (P18a) [3] = assay: Efficacy of M139603 in pigs at low doses (Example 7, Table 7); format: in vivo; set-up: Group weight / Ave. daily weight-gain: unit not given here; conditions: for Mortality (+ culls): 42 days, 6 pigs
Procedure: as §1
In this study, eighteen pigs were allocated to three equal groups (Gp.1-3). Feed incorporated with the drug at 25 or 15 ppm was offered to Gp.1 and 2, respectively, on thirty-eight consecutive days commencing six hours pre-infection. Gp.3 remained on unmedicated feed throughout the trial. The pigs were infected with T. hyodysenteriae (strain "P18a") using methods and materials similar to those applied in Example 5. However, seven days following this exposure (post-infection day 7), over a period of seven consecutive days, the pigs in Gp. 1 and 2 were allowed to co-mingle for about two hours each day with some dysenteric "seeder pigs" in a nearby pen. Drug efficacy, as in Example 6, was assessed primarily on the basis of the total number of diarrhoea/dysentery days per group and on the basis of average daily weight gain per pig per group. The results are indicative of the good efficacy of M139603 even at a level as low as 15 ppm feed in preventing swine dysentery. At this dose-level, the daily drug-intake is unlikely to be more than 0.9 mg/kg/body-weight, if daily feed is calculated at 6% of a pig's body-weight.
In this experiment twenty-four pigs were split into four equal groups (Gp. 1-4). Gp. 1 and 2 were offered the drug at 15 or 10 ppm feed on forty-two consecutive days, commencing six hours pre-infection. Gp. 3 (infected) and Gp. 4 (uninfected) remained on unmedicated feed throughout. The infection procedures with T. hyodysenteriae (P18a) were similar to those applied above. Only three groups, Gp. 1, 2 and 3 were infected. Gp. 4 remained uninfected in a well-isolated pen throughout the trial period. Three days following the initial exposure to the infection (post-infection day 3), over a period of five continuous days, the pigs in Gp. 1, 2 and 3 were allowed to co-mingle with dysenteric "seeder pigs" housed in a separate pen. Drug efficacy was measured using the criteria applied in the Examples 5 and 6. […] Thereafter, the differences narrowed, primarily due to the placement of Gp. 3 on tiamulin to prevent further weight losses, and consequent deaths. Despite the number of diarrhoea days observed for Gp. 1 (6.8%) and Gp.

T. hyodysenteriae [4] = assay: Comparative efficacy of M139603 and monensin in experimentally infected mice (Example 2, Table 2); format: in vivo, mice (strain MF-1); conditions: 25 ppm feed
Excerpt: as §2, §3

What does the source list for CO[C@@H](C)[C@H]1C[C@H](C)[C@H]([C@@H](C)/C=C/[C@@H]2CC[C@@H](C)[C@H](/C(=C/[C@H]3CCC[C@@H](C)[C@@H]3[C@H](C)C(=O)C3=C(O)COC3=O)CO)O2)O1 [Analogue M139603, tetronasin]?
Efficacy in preventing swine dysentery (T. hyodysenteriae (P18a) [1]): preventing or minimising the incidence of swine dysentery; Mortality (+ culls) (T. hyodysenteriae (P18a) [1]; 35 days, 6 pigs): 0; Average daily weight-gain (T. hyodysenteriae (P18a) [1]; PID 1-35): 0.62 kg; Number diarrhoea/dysentery days (T. hyodysenteriae (P18a) [1]; PID 1-35): 27 days; Percent diarrhoea/dysentery days (T. hyodysenteriae (P18a) [1]; PID 1-35): 12.9%; Average weight at termination (T. hyodysenteriae (P18a) [1]; start 18.8): 40.5; Group weight at termination (T. hyodysenteriae (P18a) [1]; start 112 kg): 243 kg; Suppression of infection (T. hyodysenteriae [2]): suppressed the infection; Mean (log10) viable treponemes per gram caecum & contents (T. hyodysenteriae [2]; 5 days, group mean): 0 log10 per gram; Viable treponemes per gram caecum & contents (T. hyodysenteriae [2]; 5 days, individual mice): negative; Ave. daily weight-gain (T. hyodysenteriae (P18a) [3]; 10 ppm feed group, post-infection day 44 to 57, inclusive (after withdrawal)): 0.65; Mortality (+ culls) (T. hyodysenteriae (P18a) [3]; 10 ppm feed): 0; Ave. daily weight-gain (T. hyodysenteriae (P18a) [3]; 10 ppm feed, day 4 pre-infection to day 22 post-infection): 0.59; Percent diarrhoea/dysentery days (T. hyodysenteriae (P18a) [3]; 10 ppm feed, post-infection day 1 to 21): 4.8%; No. diarrhoea/dysentery days (T. hyodysenteriae (P18a) [3]; 10 ppm feed, post-infection day 1 to 21 (126 pig-days)): 6 days; Percent diarrhoea/dysentery days (T. hyodysenteriae (P18a) [3]; 10 ppm feed, post-infection day 1 to 42): 11.9%; No. diarrhoea/dysentery days (T. hyodysenteriae (P18a) [3]; 10 ppm feed, post-infection day 1 to 42 (252 pig-days)): 30 days; Group weight (T. hyodysenteriae (P18a) [3]; 10 ppm feed, post-infection day 21, start 66.0): 161.0; Ave. daily weight-gain (T. hyodysenteriae (P18a) [3]; 10 ppm feed, post-infection day 23 to 43, inclusive): 0.83; Group weight (T. hyodysenteriae (P18a) [3]; 10 ppm feed, post-infection day 43 (1 day from withdrawal of medication)): 265.0; Average daily weight-gain vs uninfected, unmedicated group (T. hyodysenteriae (P18a) [3]; 15 or 10 ppm feed): exceeded that recorded for pigs in the uninfected, unmedicated group; Weight gain vs unmedicated, infected group (T. hyodysenteriae (P18a) [3]; 15 or 10 ppm feed, by post-infection day 21): Significant weight gain differences; Ave. daily weight-gain (T. hyodysenteriae (P18a) [3]; 15 ppm feed group, post-infection day 44 to 57, inclusive (after withdrawal)): 0.86; Mortality (+ culls) (T. hyodysenteriae (P18a) [3]; 15 ppm feed): 0; Ave. daily weight-gain (T. hyodysenteriae (P18a) [3]; 15 ppm feed, day 4 pre-infection to day 22 post-infection): 0.56; Percent diarrhoea/dysentery days (T. hyodysenteriae (P18a) [3]; 15 ppm feed, post-infection day 1 to 21): 4%; No. diarrhoea/dysentery days (T. hyodysenteriae (P18a) [3]; 15 ppm feed, post-infection day 1 to 21 (126 pig-days)): 5 days; Percent diarrhoea/dysentery days (T. hyodysenteriae (P18a) [3]; 15 ppm feed, post-infection day 1 to 42): 6.8%; No. diarrhoea/dysentery days (T. hyodysenteriae (P18a) [3]; 15 ppm feed, post-infection day 1 to 42 (252 pig-days)): 17 days; Group weight (T. hyodysenteriae (P18a) [3]; 15 ppm feed, post-infection day 21, start 63.7): 153.7; Ave. daily weight-gain (T. hyodysenteriae (P18a) [3]; 15 ppm feed, post-infection day 23 to 43, inclusive): 0.81; Group weight (T. hyodysenteriae (P18a) [3]; 15 ppm feed, post-infection day 43 (1 day from withdrawal of medication)): 225.5; Group weight (T. hyodysenteriae (P18a) [3]; 15 ppm feed, post-infection day 57 (15 days from withdrawal of medication)): 327.5; Feed level found to be effective (lowest) (T. hyodysenteriae (P18a) [3]; in the feed): 10 ppm; Suppression of infection (T. hyodysenteriae [4]): suppressed the infection; Mean (log10) viable treponemes per gram caecum & contents (T. hyodysenteriae [4]; 5 days, group mean): 0 log10 per gram; Viable treponemes per gram caecum & contents (T. hyodysenteriae [4]; 5 days, individual mice, limit of detection <1.0 × 10^2): negative
